From patent publication US10770169B2, “Method of providing a treatment to a subject based on a dynamic pathway map” (THE REGENTS OF THE UNIVERSITY OF CALIFORNIA, priority 2010, dated 2020)
Read-outs that look alike come from different tables or passages of the source.

Columns and labels:
[1] = tested on: luminal, basal, claudin-low and ERBB2AMP breast cancer cell lines; test: Associations of clinically relevant subtypes and response (non-parametric ANOVA or t-test on GI50 ranks); format: cell-based, human; settings: Table 6; most sensitive subtype, FDR p<0.20
Procedure, shortened: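 Significance was set at FDR p<0.20 after combining p-values across three test sets. Subtype–response associations came from rank-based non-parametric ANOVA or t-tests on GI50. For three-class comparisons, post-hoc tests of each group against the rest identified the most sensitive group, with FDR correction.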

[2] = tested on: panel of 55 breast cancer cell lines; test: Cell growth inhibition assay (Cell Titer Glo, 72 h, 9 doses; GI50, TGI, LC50); format: cell-based, human; settings: Homo sapiens, read-out: GI50 (converted)

SMILES: CCN(CC)CCCCNc1ncc2cc(-c3cc(OC)cc(OC)c3)c(NC(=O)NC(C)(C)C)nc2n1 [PD173074]
- Subtype specificity [1]: Claudin-low
- GI50 ([2]; 600MPE cell line, censored GI50 values): 9.77 µM
- GI50 ([2]; AU565, AU565 cell line, censored GI50 values): 7.41 µM
- GI50 ([2]; AU565, cell line AU565): 7.41 µM
- GI50 ([2]; BT-20, BT20 cell line, censored GI50 values): 15.8 µM
- GI50 ([2]; BT-20, cell line BT20): 15.8 µM
- GI50 ([2]; BT-474, cell line BT474): 33.1 µM
- GI50 ([2]; BT-549, BT549 cell line, censored GI50 values): 7.41 µM
- GI50 ([2]; BT-549, cell line BT549): 7.41 µM
- GI50 ([2]; HCC38, cell line HCC38): 2.95 µM
- GI50 ([2]; HCC70, cell line HCC70): 7.08 µM
- GI50 ([2]; HCC202, cell line HCC202): 8.51 µM
- GI50 ([2]; HCC1143, HCC1143 cell line, censored GI50 values): 13.5 µM
- GI50 ([2]; HCC1143, cell line HCC1143): 13.5 µM
- GI50 ([2]; HCC1187, HCC1187 cell line, censored GI50 values): 10.7 µM
- GI50 ([2]; HCC1187, cell line HCC1187): 10.7 µM
- GI50 ([2]; HCC1395, HCC1395 cell line, censored GI50 values): 0.617 µM
- GI50 ([2]; HCC1395, cell line HCC1395): 0.617 µM
- GI50 ([2]; HCC1419, HCC1419 cell line, censored GI50 values): 4.47 µM
- GI50 ([2]; HCC1419, cell line HCC1419): 4.47 µM
- GI50 ([2]; HCC1428, HCC1428 cell line, censored GI50 values): 6.76 µM
- GI50 ([2]; HCC1428, cell line HCC1428): 6.76 µM
- GI50 ([2]; HCC1500, cell line HCC1500): 24.5 µM
- GI50 ([2]; HCC1806, HCC1806 cell line, censored GI50 values): 5.01 µM
- GI50 ([2]; HCC1806, cell line HCC1806): 5.01 µM
- GI50 ([2]; HCC1937, HCC1937 cell line, censored GI50 values): 7.59 µM
- GI50 ([2]; HCC1937, cell line HCC1937): 7.59 µM
- GI50 ([2]; HCC1954, HCC1954 cell line, censored GI50 values): 7.59 µM
- GI50 ([2]; HCC1954, cell line HCC1954): 7.59 µM
- GI50 ([2]; MDA-MB-157, cell line MDAMB157): 2.34 µM
- GI50 ([2]; MDA-MB-231, cell line MDAMB231): 6.76 µM
- GI50 ([2]; MDA-MB-361, cell line MDAMB361): 15.1 µM
- GI50 ([2]; MDA-MB-436, cell line MDAMB436): 6.46 µM
- GI50 ([2]; MDA-MB-453, cell line MDAMB453): 1.95 µM
- GI50 ([2]; MDA-MB-468, cell line MDAMB468): 6.61 µM
- GI50 ([2]; SK-BR-3, cell line SKBR3): 7.94 µM
- GI50 ([2]; SUM52PE, cell line SUM52PE): 0.0229 µM
- GI50 ([2]; SUM149PT, cell line SUM149PT): 9.12 µM
- GI50 ([2]; SUM-159-PT, cell line SUM159PT): 6.46 µM
- GI50 ([2]; T47D, cell line T47D): 13.5 µM
- GI50 ([2]; UACC-812, cell line UACC812): 7.08 µM
- GI50 ([2]; UACC-893, cell line UACC893): 6.92 µM
- GI50 ([2]; ZR-75-1, cell line ZR751): 15.5 µM
- GI50 ([2]; cell line 600MPE): 9.77 µM
- GI50 ([2]; cell line HCC2185): 29.5 µM
- GI50 ([2]; cell line HCC3153): 15.5 µM
- GI50 ([2]; cell line LY2): 7.41 µM
- GI50 ([2]; cell line MDAMB134V): 18.6 µM
- GI50 ([2]; cell line SUM1315MO): 3.39 µM
